The record followed here is a melting point compilation (Tetko et al.; mined from patent text by program, amines drawn as free bases though some values may be those of a salt).

What is called melting point is the temperature, or range, at which the solid turns liquid. `CCCc1cc(=O)[nH]c2c3c(cc(O)c12)OC(C)C(C)C3=O` (stereo not given) displayed a melting point of 295 to 296 °C.
To `COC(=O)CCc1cc(-n2nc3ccc(Br)cc3n2)c(O)c(C(C)(C)C)c1` belongs 116 to 118 °C; to `Nc1ccc(Cl)c2c(Cl)ccnc12`, 135 °C; to `Cc1ccccc1C(=O)Nc1ccc(C(=O)N2Cc3ccccc3C(=O)c3ccccc32)cc1`, 115 to 119 °C.
To `CCCN(c1nc(-c2ccc(Cl)cc2Cl)c(C=O)s1)C(C)c1ccncc1` (stereo not given) belongs 114 °C.
The result for `c1ccc(Sc2ccc(Sc3ccccc3)s2)cc1` reads 47 to 48 °C; that for `CC1(C)Oc2c(c(Cl)cc(Cl)c2-n2c(=O)cc(C(F)(F)F)[nH]c2=O)C1=O`, 308 to 320 °C.
In the case of `Cn1c2ccccc2c(=O)n2nc(C(=O)O)cc12`, the melting point is 265 °C.
The result for `O=C(C=Cc1ccc(-c2ccc(OCCCN3CCCCC3)cc2)cc1)N1CCCCC1` reads 146 to 150 °C; that for `Nc1c(Cl)cccc1C(=O)c1ccccc1F`, 86 to 87.5 °C; that for `COC(=O)c1coc2cc(Oc3ccnc(N)n3)ccc12`, 194 to 196 °C.
To `COC(=O)c1cc2sccc2nc1C(=O)OC` belongs 121 to 124 °C.
To `CCOC(=O)N1CCC(=C2c3ccc(Cl)cc3OCc3cc(Br)cnc32)CC1` belongs 148 to 149 °C; to `CNC(=O)Nc1cc(-c2ccc(S(C)(=O)=O)cc2)c(-c2ccc(F)cc2)s1`, 70 to 75 °C.
`CCCCOc1ccc(C=CCCCC(=O)O)cc1` returned a melting point of 56 to 57 °C.
To `CON(C)C(=O)c1cc([N+](=O)[O-])c(F)cc1Cl` belongs 89 °C; to `O=C(CCCCC1(c2ccccc2)CC(O)=C(SCCc2ccccc2)C(=O)O1)NCc1ccccc1` (stereo not given), 47 to 49 °C; to `Cc1nc(Cl)c(C)c(Cl)c1C`, 67 to 68 °C.
To `NC(=O)c1c(F)cccc1C(=O)O` belongs 129 to 132 °C.
Compound `Clc1ccc(Cn2nncc2CN2CCC(c3ccccc3)(c3ccccc3)CC2)cc1` had a melting point of 195 °C.
Compound `CCc1ccc(C#CC(C)N(O)C(N)=O)cc1` (stereo not given) had a melting point of 142 to 144 °C.
`CC1=C(C(=O)OC(C)C)C(c2cccc3ccc(-c4ccccc4)nc23)C([N+](=O)[O-])=C(C)N1` (stereo not given) came in with a melting point of 205 °C.
To `COc1ccc(S(=O)(=O)C(Cc2ccc3ccccc3c2)C(=O)NO)cc1` (stereo not given) belongs 161 to 163 °C; to `CC(C#Cc1ccc(-c2cccnc2S)o1)N(O)C(N)=O` (stereo not given), 145 °C; to `O=C1NCc2ccccc2N1`, 142 °C.
The result for `CCCC1=C(C#N)C(c2ccccc2Cl)c2c(n[nH]c2-c2cccs2)N1` (stereo not given) reads 256 °C; that for `COC(=O)c1ccc2scc(Br)c2c1`, 93 to 94 °C.
To `COC(=O)C(CNC(=O)Cc1ccc(OC)c(OC)c1)c1ccc(OC)c(OC)c1` (stereo not given) belongs 92 to 93 °C; to `COc1ccc2c(c1)C(CC#N)CN(C(=O)OC(C)(C)C)C2` (stereo not given), 75 to 77 °C; to `CC(C)c1nc(C2CCCCC2)cc(-c2ccc(F)cc2)c1C=O`, 59 to 61 °C.
`CN(C)CCNC(=O)c1cc(-c2cccc(Cl)c2)c2cc(C(c3ccc(Cl)cc3)c3cncn3C)ccc2n1` (stereo not given): the melting point was determined as 184 °C.
To `CNC(Cc1cc(Cl)ccc1N)c1sccc1C` (stereo not given) belongs 59 to 61 °C.
The result for `CC(C)=CCN1[C@H](C)Cn2c(=S)[nH]c3cccc(c32)[C@@H]1C` (relative stereo) reads 138 °C; that for `CCCn1c(=O)cc(OCC)n(Cc2ccc(-c3ccccc3-c3nnn[nH]3)cc2)c1=O`, 108 to 119 °C.
`CSc1ccc(OC(C)c2ccnc3ncnn23)cc1` (stereo not given) came in with a melting point of 84 to 86 °C.
To `COc1cc2c(c3c1OC(C)(C)C3)C(c1cccc(N(C)C(N)=O)c1)=NC(C)(C)C2` belongs 108 to 109 °C; to `CC(C)Cc1ncn(C(C)C(O)(Cc2nc[nH]n2)c2ccc(Cl)cc2)n1` (stereo not given), 140 to 141 °C; to `Cc1ccc(C(O)c2ccc3noc(-c4cccc(Cl)c4)c3c2)cc1` (stereo not given), 225 °C.
As to `O=C(Nc1ccc(-n2nc(C(F)(F)F)cc2C2CC2)c(F)c1)c1c(F)cccc1F`, the melting point was 193 to 196 °C.
To `COc1cc(C(C)C)ccc1C1COc2c(C)c(C)cc(C)c21` (stereo not given) belongs 102 to 103 °C; to `Cn1cnc([N+](=O)[O-])c1Sc1nc(N)nc2c1ncn2C1C=CC(CO)C1` (stereo not given), 207 to 208 °C; to `CN(N)c1ccc(-c2ccccc2)nn1`, 145 to 147 °C.
To `CCCCCCCCCCCCCCCCNC(=O)c1cc(OCCN=C=S)c2ccccc2c1O` belongs 90 to 91 °C.
For the compound `CC(=O)Nc1ccc(N2CCNCC2)cc1`, the melting point lay in the range of 191 to 193 °C.
To `Cc1sc2nc(-c3ccccc3)c(-c3ccc(S(C)(=O)=O)cc3)n2c1C` belongs 193 to 194 °C; to `CCc1cc(O)n2ncnc2n1`, 212 °C.
The result for `CCCCC1(CCCC)CS(=O)(=O)c2ccc(N(C)C)cc2[C@H](c2ccc(OCCOCCC(C(=O)O)C(=O)O)cc2)[C@@H]1O` reads 120 °C; that for `CC(C)C(=O)c1ccc2c(c1)CC(N1C(=O)c3ccccc3C1=O)C2` (stereo not given), 138 to 140 °C; that for `COc1cc(Nc2nccc(-c3ccc(N4CCN[C@@H](C)C4)nc3)n2)cc(OC)c1OC`, 139 to 140 °C.
To `Nc1ncccc1OCc1cc2c(cc1Cl)OCO2` belongs 100 to 104 °C.
Compound `NC1([C@@H]2CCN(c3ccc4c(=O)c(C(=O)O)cn([C@@H]5C[C@@H]5F)c4c3)C2)CC1` came in with a melting point of 251 to 253 °C.
Consider `COc1cc(COc2ccc(N)nn2)cc(OC)c1OC`, for which the melting point fell in the range of 142 to 144 °C.
Compound `CCOC(=O)c1cc(C)nn1C` came in with a melting point of 150 to 154 °C.
The result for `CC(C)(C)COc1ccc(N(CC(=O)O)C(=O)c2cccn2-c2ccc(F)cc2)cc1C#N` reads 140 to 143 °C; that for `CSc1cccc(-c2ccccc2N)c1`, 114 to 115 °C.
In turn, `CCCOc1c(Cl)cc(Cl)c2c(=O)c3ccccc3sc12` had a melting point of 104 to 105 °C.
The result for `CC(C)c1nc(-c2cccs2)cc(-c2ccc(F)cc2)c1CO` reads 151 to 153 °C; that for `C=CCN(CC=C)Cc1c(-c2ccccc2)sc(N)c1C(=O)c1ccc(Cl)cc1`, 155 to 156 °C.
For the compound `C=C1C[C@@H]2C(=O)NC(=O)[C@@H]2C1`, the melting point is 135 to 137 °C.
The result for `CCCCN(CC)CC1CCCCN1CCNC(=O)N1c2ccccc2C(=O)Nc2cccnc21` (stereo not given) reads 156 to 157 °C; that for `O=C1c2ccccc2C(=O)N1CC(=O)N(Cc1ccccc1)c1ccccc1`, 150 °C.
For the compound `COc1cc(Nc2c(C#N)cnc3cc(-c4csc(C=O)c4)sc23)c(Cl)cc1Cl`, the melting point was 259 to 261 °C.
On to `CCCCC(C(=O)Nc1c(C(C)C)cccc1C(C)C)C1c2ccccc2Oc2ccccc21` (stereo not given), for which the melting point was in the range of 188 to 189 °C.
To `c1ccc(-c2cc(N3CCNCC3)nc3ccccc23)cc1` belongs 133 to 134 °C; to `CCOC(=O)C=Cc1ccc(OC)cc1OC`, 58 °C.
The result for `CCOC(=O)C1(C(=O)OCC)SCC(N(C)C)CS1` reads 38 to 39 °C; that for `Cc1nn(C)c2c(O)nc(C(C)C)nc12`, 264 to 266 °C; that for `COc1cc2nc(N3CCCN(C(=O)C=Cc4cccnc4)CC3)nc(N)c2cc1OC`, 141 to 143 °C.
The result for `Cn1c(=O)c2cnc(O)n2c2ccccc21` reads over 300 °C; that for `N=C(N)NCc1ccc(OCCC2Oc3ccccc3N(Cc3ccccc3Cl)C2=O)cc1` (stereo not given), 180 to 182 °C.
Regarding `CC(C)NC1=NS(=O)(=O)c2ccc(F)cc2N1`, the melting point fell in the range of 266 to 269 °C.
The result for `O=C1OC(=O)c2cc3cccc([N+](=O)[O-])c3c3cccc1c23` reads 246 °C; that for `Nc1c(SC(F)(F)F)c(C=O)nn1-c1c(Cl)cc(C(F)(F)F)cc1Cl`, 140 to 143 °C.
To `O=c1[nH]c2cc(Cl)cc(Cl)c2c(=O)n1Cc1cccc([N+](=O)[O-])c1` belongs 314 to 317 °C; to `CCc1nc(-c2ccc(OCCCn3ccnc3)cc2)no1`, 74 to 75.5 °C; to `Cn1cncc1-c1nc(-c2cccc(Cl)c2)c2cc(C(O)(c3ccc(Cl)cc3)c3cncn3C)ccc2n1` (stereo not given), 160 °C.
The result for `COc1ccc(C(=O)C2CCN(C(C)=O)CC2)c(O)c1` reads 138 to 140 °C; that for `CC(C)c1c(C=CC2CC(O)CC(O)O2)n(CC2CCCCC2)c(=O)c2ccccc12` (mixture of isomers), 207 to 209 °C; that for `FC(F)(F)c1cc(-c2ncn(CCCN3CCOCC3)c2-c2ccncc2)cc(C(F)(F)F)c1`, 136 to 138 °C.
The compound `COC(=O)Cc1coc(-c2cc(C(C)(C)C)c(O)c(C(C)(C)C)c2)n1` showed a melting point of 126 to 128 °C.
The result for `CC(C)(N)c1ccc(-c2nc(Nc3ccc(CCN4CCOCC4)cc3)ncc2Cl)cc1` reads 166 to 173 °C; that for `C=C1CCC2C3CC(=O)C4=CC(=O)CCC4(C)C3CCC12C` (stereo not given), 113 to 115 °C; that for `COc1ccc(/C(=C\C=C\C(=O)O)c2ccccc2)cc1`, 184 to 185 °C.
To `Cn1cc2c(C3CC3C#N)c(Br)ccc2n1` (stereo not given) belongs 154 to 156 °C.
The result for `Cc1cccc(Cl)c1NC(=O)Nc1cc(NC(C)C)ncn1` reads 233 °C; that for `NS(=O)(=O)c1ccc(-n2c(-c3ccccc3)csc2=S)cc1`, 235 °C.
`COc1cccc(N(C)C(=O)Oc2ccc(C(F)(F)F)cc2)n1` returned a melting point of 85 to 86 °C.
The result for `Cc1cc(-c2cccc3c2C(=O)OC(C)(C)O3)on1` reads 74 °C.
The result for `C=C(C)n1cc(C(=O)O)c(=O)c2cc(F)c(Cl)cc21` reads 229 °C; that for `Cc1cccc2c(=O)cc(O)c(=O)[nH]c12`, 184 to 186 °C.
